{"source": "paper PMC7363588", "about": "“Mapping of the FGF14:Nav1.6 complex interface reveals FLPK as a functionally active peptide modulating excitability” (Physiological Reports, 2020)", "test_system": "Nav1.6 in the presence of FGF14-ΔNT-GFP", "experiment": "Whole-cell patch-clamp, HEK-Nav1.6 cells expressing FGF14-ΔNT-GFP", "assay_type": "cell-based, human", "conditions": "50 μM FLPK", "text": "Plasmids used in this study derived from the following clones: human FGF14‐1b isoform (accession number: NM_175929.2) and human Nav1.6 (accession number: NM_014191.3). The CLuc‐FGF14, CD4‐Nav1.6‐NLuc, constructs and the pcDNA3.1 vector (Invitrogen, Carlsbad, CA) were engineered and characterized as previously described (Goetz et al., 2009; Shavkunov et al., 2012,2013,2015; Ali et al., 2016, 2018; Wadsworth et al., 2019). The plasmid pGL3 expressing full length Firefly (Photinus pyralis) luciferase was a gift from Dr. P. Sarkar (Department of Neurology, UTMB). For protein purification studies, cDNAs encoding FGF14‐1b (accession number NP_787125; aa 64–252) or the C‐terminal tail of Nav1.6 (accession number #NP_001171455; aa 1756–1939) were subcloned into suitable pET bacterial expression vectors (pET28a‐FGF14; pET30a‐Nav1.6) with a 6X His‐tag at the N‐terminal site; these plasmids were a gift of Dr. Moosa Mohammadi (NYU, Langone Medical Center). The mutation coding for FGF14^V160A was generated by site‐directed mutagenesis and PCR using FGF14‐1b as a template described previously (Ali et al., 2016). For electrophysiological studies FGF14‐GFP (human) and FGF14‐ΔNT‐GFP (human) were cloned into the GFP plasmid (pQBI‐fC2; Quantum Biotechnology Inc., Montreal, Canada) as previously described.\nHEK293 cells were maintained in DMEM and F‐12 (Invitrogen, Carlsbad, CA), supplemented with 0.05% glucose, 0.5 mM pyruvate, 10% fetal bovine serum, 100 units/ml penicillin, and 100 µg/ml streptomycin (Invitrogen), and incubated at 37 °C with 5% CO2. HEK293 cells stably expressing the human Nav1.6 channel (hereafter referred to as HEK‐Nav1.6 cells) were maintained similarly except for the addition of 500 μg/ml G418 (Invitrogen) to maintain stable Nav1.6 expression. Cells were transfected at 80%–90% confluence with equal amount (1 μg each) of plasmid pairs using Lipofectamine 2000 (Invitrogen) according to manufacturer's instructions. HEK‐Nav1.6 cells were washed and replated at very low density prior to electrophysiological recordings (Ali et al., 2016, 2018; Scala et al., 2018; Wadsworth et al., 2019).\nHEK‐Nav1.6 cells transfected with GFP or FGF14‐GFP were plated at low density on glass cover slips for 3–4 hr and subsequently transferred to the recording chamber. Recordings were performed at room temperature (20–22°C) 24 hr posttransfection using a MultiClamp 700B amplifier (Molecular Devices, Sunnyvale, CA). The composition of recording solutions consisted of the following salts; extracellular (mM): 140 NaCl, 3 KCl, 1 MgCl2, 1 CaCl2, 10 HEPES, 10 glucose, pH 7.3; intracellular (mM): 130 CH3O3SCs, 1 EGTA, 10 NaCl, 10 HEPES, pH 7.3. Membrane capacitance and series resistance were estimated by the dial settings on the amplifier and compensated for electronically by 70%–75%. Data were acquired at 20 kHz and filtered at 5 kHz prior to digitization and storage. All experimental parameters were controlled by Clampex 9.2 software (Molecular Devices) and interfaced to the electrophysiological equipment using a Digidata 1,200 analog‐digital interface (Molecular Devices). Voltage‐dependent inward currents for HEK‐Nav1.6 cells were evoked by depolarization to test potentials between −100 mV and +60 mV from a holding potential of −70 mV followed by a voltage prestep pulse of −120 mV (Nav1.6). Steady‐state (fast) inactivation of Nav channels was measured with a paired‐pulse protocol. From the holding potential, cells were stepped to varying test potentials between −120 mV (Nav1.6) and +20 mV (prepulse) prior to a test pulse to −20 mV.\nCurrent densities were obtained by dividing Na^+ current (INa) amplitude by membrane capacitance. Current–voltage relationships were generated by plotting current density as a function of the […]. Conductance (GNa) was calculated by the following equation: GNa=INa/Vm‐Erev where INa ^+ is the current amplitude at voltage Vm, and Erev is the Na^+ reversal potential. […]", "note": "Entries after “also recorded” stand apart in the source; their conditions may differ. Marks after values point to notes of the source that are not given here. Peptide text beside a SMILES is read from it."}
{"smiles": "CC(=O)N[C@@H](Cc1ccccc1)C(=O)N[C@@H](CC(C)C)C(=O)N1CCC[C@H]1C(=O)N[C@@H](CCCCN)C(N)=O", "note": "[FLPK] (Ac-FLPK-NH2)", "values": [{"measurement": "effect on Nav1.6 currents in absence of FGF14 N-terminal domain", "setting": "FGF14-ΔNT-GFP", "value": "insensitive to FLPK; also recorded: no effects on any other parameters associated with FGF14‐GFP regulation; also recorded: unaffected by FLPK"}, {"measurement": "Tau (τ), decay time constant of I Na", "setting": "ΔNT-FGF14-GFP, at −10 mV, mean ± SEM (n = 11), DMSO 1.091 ± 0.07", "value": "1.137 ± 0.08 (11) ms"}, {"measurement": "Kact", "setting": "ΔNT-FGF14-GFP, mean ± SEM (n = 11), DMSO 4.61 ± 0.3", "value": "1.63 ± 0.23 (11) mV"}, {"measurement": "Kinact", "setting": "ΔNT-FGF14-GFP, mean ± SEM (n = 11), DMSO 6.4 ± 0.44", "value": "6.75 ± 0.32 (11) mV"}, {"measurement": "Activation (V1/2)", "setting": "ΔNT-FGF14-GFP, mean ± SEM (n = 11), DMSO –21.2 ± 0.36, p < .001", "value": "–37.43 ± 0.3 (11) ^ l , ^ o,p,q mV"}, {"measurement": "Steady-state Inactivation (V1/2)", "setting": "ΔNT-FGF14-GFP, mean ± SEM (n = 11), DMSO –70.2 ± 0.53", "value": "–68.3 ± 0.34 (11) ^o,p,q mV"}]}
